Experimental data reported in patent publication US20240041042A1, “1-(PYRIDYL)-5-AZINYLPYRAZOLE DERIVATIVES, AND THEIR USE FOR CONTROL OF UNDESIRED PLANT GROWTH” (Bayer Aktiengesellschaft, priority 2020, published 2024).
Read-outs that look alike come from different tables or passages of the source.

Tests used:
Assay type in all cases: in vivo
[1] = test system: Alopecurus myosuroides (ALOMY); test: Pre-emergence herbicidal action against ALOMY; conditions: 320 g/ha; scored visually after about 3 weeks; 100% = plants have died
Summary of the method: (§1)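 Pre-emergence soil-surface spray, WP/EC formulation, 0.5% additive, 600 l/ha water, rates of 320 g/ha or lower. Greenhouse, ~3 wk. Visual score, % of untreated control (100% = plants dead, 0% = like control).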

[2] = test system: Amaranthus retroflexus (AMARE); test: Pre-emergence herbicidal action against AMARE; conditions: visual scoring after about 3 weeks vs untreated controls
Summary of the method: as §1

[3] = test system: Digitaria sanguinalis (DIGSA); test: Pre-emergence herbicidal action against DIGSA
Summary of the method: as §1

[4] = test system: Echinochloa crus-galli (ECHCG); test: Pre-emergence herbicidal action against ECHCG; conditions: dosage 320 g/ha
Summary of the method: as §1

[5] = test system: Matricaria inodora (MATIN); test: Pre-emergence herbicidal action against MATIN; conditions: dosage 320 g/ha
Summary of the method: as §1

[6] = test system: Polygonum convolvulus (POLCO); test: Pre-emergence herbicidal action against POLCO; conditions: dosage 320 g/ha
Summary of the method: as §1

Setaria viridis (SETVI) [7] = test: Pre-emergence herbicidal action against SETVI; conditions: dosage 320 g/ha
Summary of the method: as §1

[8] = test system: Verconica persica (VERPE); test: Pre-emergence herbicidal action against VERPE; conditions: dosage 320 g/ha
Summary of the method: as §1

Viola tricolor (VIOTR) [9] = test: Pre-emergence herbicidal action against VIOTR
Summary of the method: as §1

Zea mays (ZEAMX) [10] = conditions: pre-emergence, 80 g/ha, crop plant compatibility, in comparison to untreated controls
Description: Seeds of monocotyledonous and dicotyledonous weed plants and crop plants are placed in plastic or organic planting pots and covered with soil. The compounds of the invention, formulated in the form of wettable powders (WP) or as emulsion concentrates (EC), are then applied to the surface of the covering soil as aqueous suspension or emulsion with addition of 0.5% additive at a water application rate equivalent to 600 l/ha. After the treatment, the pots are placed in a greenhouse and kept under good growth conditions for the trial plants. After about 3 weeks, the effect of the preparations is scored visually in comparison with untreated controls as percentages. For example, 100% activity=the plants have died, 0% activity=like control plants.
The observed effects on selected crop plants are reported here in comparison to the untreated controls (values in %). The appendices “a” “b” and “c” give differentiation by dosage used with otherwise the same crop plants tested.

[11] = test system: Abutilon theophrasti (ABUTH); test: Post-emergence herbicidal action against ABUTH; conditions: 80 g/ha, visual rating about 3 weeks after treatment vs untreated controls (100% = plants have died, 0% = like control plants)
Summary of the method: (§2)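 Values are percent visual activity (0% like control, 100% plants dead) after about 3 weeks in the greenhouse. Treatment: post-emergence spray at one-leaf stage, 600 l/ha spray volume, 0.5% additive, doses 320 g/ha or lower.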

[12] = test system: Alopecurus myosuroides (ALOMY); test: Post-emergence herbicidal action against ALOMY; conditions: 80 g/ha, visual rating about 3 weeks after treatment vs untreated controls (100% = plants have died, 0% = like control plants)
Summary of the method: as §2

[13] = test system: Amaranthus retroflexus (AMARE); test: Post-emergence herbicidal action against AMARE
Summary of the method: as §2

Setaria viridis (SETVI) [14] = test: Post-emergence herbicidal action against SETVI; conditions: dosage 80 g/ha
Summary of the method: as §2

Oryza sativa (ORYSA) = conditions: crop plant compatibility
Summary of the method: (§3)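 Foliar application at the one-leaf stage: WP/EC formulation, 0.5% additive, 600 l/ha water. Greenhouse-grown in sandy loam. Endpoint is visual % injury relative to untreated controls at about 3 weeks.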

Zea mays (ZEAMX) [15] = test system: Zea mays (ZEAMX)
Summary of the method: as §3

[16] = test system: Pharbitis purpurea (PHBPU); test: Post-emergence herbicidal action against PHBPU
Summary of the method: as §2

[17] = test system: Polygonum convolvulus (POLCO); test: Post-emergence herbicidal action against POLCO; conditions: dosage 320 g/ha
Summary of the method: as §2

[18] = test system: Verconica persica (VERPE); test: Post-emergence herbicidal action against VERPE; conditions: 320 g/ha, VERPE
Summary of the method: as §2

Viola tricolor (VIOTR) [19] = test: Post-emergence herbicidal action against VIOTR
Summary of the method: as §2

[20] = 80 g/ha, visual rating about 3 weeks after treatment vs untreated controls (100% = plants have died, 0% = like control plants)
[21] = 80 g/ha, effect in comparison to untreated controls

Compound: CCOC(=O)CN(C)S(=O)(=O)NC(=O)COc1nn(-c2ncccc2F)c(-c2ccc(F)nc2)c1Br [Example I-54]
- Pre-emergence action against ALOMY [1]: 100%
- Pre-emergence action against AMARE in % ([2]; 320 g/ha): 100%
- Pre-emergence action against DIGSA in % ([3]; 80 g/ha, visual scoring after about 3 weeks vs untreated controls): 100%
- Pre-emergence action against DIGSA in % ([3]; dosage 320 g/ha): 100%
- Pre-emergence action against ECHCG in % [4]: 100%
- Pre-emergence action against MATIN in % [5]: 100%
- Pre-emergence action against POLCO in % [6]: 90%
- Pre-emergence action against SETVI in % (Setaria viridis (SETVI) [7]): 100%
- Pre-emergence action against VERPE in % [8]: 100%
- Pre-emergence action against VIOTR in % (Viola tricolor (VIOTR) [9]; 320 g/ha, Viola tricolor): 100%
- Pre-emergence action against VIOTR in % (Viola tricolor (VIOTR) [9]; dosage 80 g/ha): 100%
- Pre-emergence action against ZEAMX in % (Zea mays (ZEAMX) [10]): 0%
- Post-emergence action against ABUTH in % [11]: 80%
- Post-emergence action against ALOMY in % [12]: 90%
- Post-emergence action against AMARE in % [13, 20]: 80%
- Post-emergence action against SETVI in % (Setaria viridis (SETVI) [14]): 80%
- Post-emergence action against ORYSA in % (Oryza sativa (ORYSA); 20 g/ha, effect vs untreated controls): 0%
- Post-emergence action against ORYSA in % (Oryza sativa (ORYSA); [21]): 0%
- Post-emergence action against ZEAMX in % (crop plant compatibility) (Zea mays (ZEAMX) [15]; 20 g/ha, ZEAMX, effect in comparison to untreated controls): 0%

Compound: O=C(O)COc1nn(-c2ccccn2)c(-c2ccc(Cl)nc2)c1Br [Example I-235]
- Pre-emergence action against AMARE in % ([2]; 80 g/ha): 80%
- Pre-emergence action against AMARE in % ([2]; 320 g/ha): 90%
- Pre-emergence action against DIGSA in % ([3]; dosage 320 g/ha): 90%
- Pre-emergence action against VERPE in % [8]: 80%
- Pre-emergence action against ZEAMX in % (Zea mays (ZEAMX) [10]): 0%
- Post-emergence action against AMARE in % [13, 20]: 80%
- Post-emergence action against AMARE in % ([13]; 320 g/ha, visual rating about 3 weeks after treatment): 80%
- Post-emergence action against PHBPU in % ([16]; dosage 80 g/ha): 80%
- Post-emergence action against PHBPU in % ([16]; dosage 320 g/ha): 80%
- Post-emergence action against POLCO in % [17]: 80%
- Post-emergence action against VERPE in % [18]: 80%
- Post-emergence action against VIOTR in % (Viola tricolor (VIOTR) [19]; 80 g/ha): 80%
- Post-emergence action against VIOTR in % (Viola tricolor (VIOTR) [19]; 320 g/ha): 80%
- Post-emergence action against ORYSA in % (Oryza sativa (ORYSA); [21]): 0%
- Post-emergence action against ORYSA in % (Oryza sativa (ORYSA); 320 g/ha, effect in comparison to untreated controls): 0%
- Post-emergence action against ZEAMX in % (Zea mays (ZEAMX) [15]; crop plant compatibility, 80 g/ha, effect vs untreated controls): 20%
